Measurements: PMC7344659, “Bioactivity of Spongian Diterpenoid Scaffolds from the Antarctic Sponge Dendrilla antarctica” (Marine Drugs, 2020)
Read-outs that look alike come from different tables or passages of the source.

Legend:
Leishmania donovani [1] = test: Leishmania donovani infected macrophage assay; assay type: cell-based
Procedure: (§1) The full suite of Dendrilla antarctica-derived compounds, with the exception of darwinolide (1) and dendrillin D (12) owing to mass limitations, were tested against Leishmania donovani infected macrophages, liver-stage sporozoites in primary human hepatocytes, and against MRSA biofilm. Cytotoxicity was evaluated using the mammalian J774A.1 cell line in L. donovani-active compounds, while primary human hepatocytes were evaluated for malaria-active compounds.
(§2) The results from the Leishmania donovani assay (Table 2) indicate activity commensurate with the positive control and current standard of care, miltefosine (2.9 µM) is observed in aplysulphurin (2, 3.1 μM), tetrahydroaplysulphurin-1 (4, 3.5 μM), dendrillin B (10, 3.5 μM), 8-ketodihydrogracilin (13, 4.5 μM), and triol 15 (4.5 μM).
(§3) The Leishmania donovani cell line infected macrophage assay and cytotoxicity screen were conducted as previously described.

[2] = J774A.1-cell cytotoxicity assay (uninfected macrophage); assay type: cell-based; conditions: mouse, J774A.1 macrophage cells (uninfected); Table 3; unit not given (μM in Table 2); read-out: J774 Cytotoxiciy
Procedure: as §1, §3

J774A.1 macrophages [3] = test: as above; assay type: cell-based; conditions: Mus musculus, J774.A1; cytotoxicity, uninfected J774A.1 macrophages; single point determination; read-out: Leishmania donovani IC50 Uninfected Macrophage
Procedure: as §1, §3

Plasmodium falciparum [4] = test: Liver-stage Plasmodium falciparum assay in primary human hepatocytes; assay type: cell-based; conditions: for inhibition at 5 µg/mL: Plasmodium falciparum, Hepatocyte, 5 μg/mL, infected primary human hepatocytes, % (Standard Deviation), n = 3, read-out: Plasmodium falciparum Inhibition at 5 μg/mL Infected PHHs; for concentration with 100% inhibition against P. falciparum infected liver cells / concentration with modest activity (60% inhibition) against P. falciparum infected liver cells: screen at fixed 5 µg/mL; for concentration with 100% inhibition against P. falciparum infected liver cells: 100% inhibition level (highest level); for concentration with modest activity (60% inhibition) against P. falciparum infected liver cells: 60% inhibition level
Procedure: as §1
(§4) For the Plasmodium falciparum infected liver cells, screening was conducted at a fixed concentration of 5 µg/mL for each compound, and activities representing 60% inhibition and 100% inhibition are reported in comparison with the positive control primaquine. […] Aplysulphurin (2) at ≤13 μM was also active at the highest level.
(§5) The liver-stage Plasmodium falciparum assay was conducted as previously reported.

[5] = test system: primary human hepatocytes; test: Cytotoxicity towards uninfected primary human hepatocytes; assay type: cell-based; conditions: for inhibition at 5 µg/mL: Hepatocyte, 5 μg/mL, uninfected primary human hepatocytes, % (Standard Deviation), n = 3, read-out: Plasmodium falciparum Inhibition at 5 μg/mL Uninfected PHHs; for cytotoxicity towards uninfected primary human hepatocytes (in words): 5 µg/mL screen
Procedure: as §1, §4, §5

MRSA biofilm = MRSA biofilm eradication assay; assay type: cell-based, methicillin-resistant Staphylococcus aureus; conditions: for inhibition at 25 µg/mL / inhibition at 50 µg/mL / inhibition at 100 µg/mL: Staphylococcus aureus, MRSA; for inhibition at 50 µg/mL: 50 μg/mL; for inhibition at 100 µg/mL: 100 μg/mL; for Pathogen Activity, MRSA Biofilm: Table 3, no unit printed there (58 μM); for concentration at which activity against MRSA biofilm was exhibited: eradication level not given
Procedure: The MRSA biofilm assay was carried out at concentrations of 100, 50, and 25 µg/mL for each compound, and activities representing 50% and 90% eradication are reported.
The MRSA biofilm assay was conducted as previously reported.

Leishmania donovani [6] = test system: Leishmania donovani; design: method as in PMID 32281798; conditions: ref [15], cited from earlier work
J774A.1 macrophages [7] = test system: J774A.1 macrophages; design: method as in PMID 32281798; conditions: ref [15], cited from earlier work
[8] = Leishmania donovani infected macrophage assay; assay type: cell-based; conditions: mouse, J774A.1 cytotoxicity / L. donovani activity; read-out: selectivity index (SI, mammalian cytotoxicity/antiprotozoal activity)
Procedure: as §1, §2, §3

Plasmodium falciparum [9] = test: Liver-stage Plasmodium falciparum assay in primary human hepatocytes; assay type: cell-based; conditions: Table 3; SI = J774 IC50/pathogen IC50
[10] = test system: methicillin-resistant Staphylococcus aureus (MRSA) biofilm; design: method as in PMID 27175857; conditions: ref [17]; cited from earlier work
[11] = Leishmania donovani, J774.A1, J774A.1 macrophages, single point determination, read-out: Leishmania donovani IC50 Infected Macrophage
[12] = Leishmania donovani, Macrophage, Table 3, unit not given (μM in Table 2), read-out: Pathogen Activity, Leishmania donovani
[13] = J774A.1 macrophages, single point determination, read-out: Leishmania donovani IC50 Infected Macrophage
[14] = cytotoxicity, uninfected J774A.1 macrophages, single point determination, read-out: Leishmania donovani IC50 Uninfected Macrophage
[15] = Table 3, no unit printed there, same values marked as from reference in Table 2, read-out: J774 Cytotoxiciy

| Compound | IC50 (Leishmania donovani [1]; [11]) [µM] | IC50 (J774A.1 macrophages [3]) [µM] | inhibition at 5 µg/mL (Plasmodium falciparum [4]) [%] | inhibition at 5 µg/mL [5] [%] | inhibition at 25 µg/mL (MRSA biofilm; 25 μg/mL, % (Std. Dev.), n = 6) [%] | inhibition at 50 µg/mL (MRSA biofilm; % (Std. Dev.), n = 6) [%] | inhibition at 100 µg/mL (MRSA biofilm; % (Std. Dev.), n = 6) [%] | further results |
| --- | --- | --- | --- | --- | --- | --- | --- | --- |
| CCC1=C(C=O)[C@H](C(=O)OC)CC[C@@H]1[C@@]1(C)CCCC(C)(C)C1 (relative stereo) [Dendrillin C (11), dendrillin C] | > 31 | > 160 | 1.3 | 3.4 | 84 | 97.8 | 99.2 | IC50 [2]: > 160 µM; Pathogen Activity, MRSA Biofilm (MRSA biofilm): 78; concentration achieving 50% eradication of MRSA biofilm (MRSA biofilm; tested at 100, 50 and 25 µg/mL, 50% eradication): 25 µg/mL; concentration at which activity against MRSA biofilm was exhibited (MRSA biofilm; tested at 100, 50 and 25 µg/mL): 50 µg/mL |
| CC(=O)OC1OC(OC(C)=O)C2C(=O)C(C3(C)CCCC(C)(C)C3)CCC12 (stereo not shown) [8-Ketodihydrogracilin (13), 8-ketodihydrogracilin] | 4.5 | 22 | 0 | 2.3 | 5.7 | 97.7 | 99.7 | IC50 (Leishmania donovani [1]; [12]): 4.5 µM; Selectivity Index (SI), Leishmania donovani (Leishmania donovani [1]; Table 3, SI = J774 IC50/pathogen IC50): 5; IC50 [2]: 22 µM; concentration at which activity against MRSA biofilm was exhibited (MRSA biofilm; tested at 100, 50 and 25 µg/mL): 50 µg/mL |
| C/C=C1/[C@@H]2[C@@H](OC(C)=O)O[C@@H](OC(C)=O)[C@@H]2CC[C@@H]1[C@@]1(C)CCCC(C)(C)C1 [9,11-Dihydrogracilin A (3), 9,11-dihydrogracilin A] |  |  | 0 | 1.1 | 0 | 29.1 | 12.7 | IC50 (Leishmania donovani [6]; [13]): 9.1 µM; IC50 (J774A.1 macrophages [7]; [14]): 23 µM |
| CC(=O)O[C@@H]1O[C@H]2OC(=O)[C@H](C)c3c([C@@]4(C)CCCC(C)(C)C4)ccc1c32 [Aplysulphurin (2), aplysulphurin] |  |  | 100 | 7.6 | 6.5 | 29.4 | 21.1 | concentration with 100% inhibition against P. falciparum infected liver cells (Plasmodium falciparum [4]): ≤ 13 µM; cytotoxicity towards uninfected primary human hepatocytes (in words) [5]: no discernable cytotoxicity; IC50 (Leishmania donovani [6]; J774A.1 macrophages, single point determination, listed as 2, read-out: Leishmania donovani IC50 Infected Macrophage): < 10 µM; IC50 (Leishmania donovani [6]; [13]): 3.1 µM; IC50 (J774A.1 macrophages [7]; [14]): 12 µM |
| C[C@H]1C(=O)O[C@@H]2OC[C@@H]3CCC([C@@]4(C)CCCC(C)(C)C4)=C1[C@@H]32 [Cadlinolide C (8), cadlinolide C] | 16 | > 160 | 0 | 0 | 2.6 | 35 | 85.4 |  |
| CC(=O)O[C@@H]1O[C@H](OC(C)=O)[C@@H]2[C@H]1CC[C@H](/C(C)=C1/CCCC1(C)C)C2(C)C [Compound 7] | 14 | 18 | 39.3 | 0.7 | 3.9 | 28.7 | 2.9 |  |
| CC(=O)OC1OC(OC(C)=O)C2C1CCC(C1(C)CCCC(C)(C)C1)C21OC1C (stereo not shown) [Dendrillin A (9), dendrillin A] | 6 | 9 | 4.3 | 2.9 | 0 | 0 | 0 |  |
| COC(=O)C(C)c1c(C2(C)CCCC(C)(C)C2)ccc2c1C(O)OC2=O (stereo not shown) [Dendrillin B (10), dendrillin B] |  | > 140 | 0 | 0 | 37 | 19.4 | 90.7 | IC50 (Leishmania donovani [1]; [13]): < 10 µM; IC50 (Leishmania donovani [1]; [12]): 3.5 µM; IC50 [2]: > 140 µM |
| C/C(=C1\CCCC1(C)C)[C@H]1CC[C@H]2C(=O)OC[C@H]2C1(C)C [Glaciolide (6), glaciolide] | 8.8 | > 170 | 0 | 4.5 | 20 | 20.8 | 32.2 |  |
| COC(=O)[C@H](C)c1c([C@@]2(C)CCCC(C)(C)C2)ccc2c1C(=O)OC2 [Membranolide (5), membranolide] |  |  | 59.7 | 0 | ~100 | 99.9 | 100 | selectivity ratio [8]: 8; MRSA Biofilm Inhibition 25 μg/mL (MRSA biofilm; 25 μg/mL, % (Std. Dev.), n = 6): 99.7 (0.1) %; Pathogen Activity, MRSA Biofilm (MRSA biofilm): 58; concentration achieving 90% eradication of MRSA biofilm (MRSA biofilm; lowest concentration tested, 25 μg/mL, in molar units): 58 µM; concentration achieving 90% eradication of MRSA biofilm (MRSA biofilm; tested at 100, 50 and 25 µg/mL, 90% eradication): 25 µg/mL; IC50 (Leishmania donovani [6]; J774A.1 macrophages, single point determination, listed as 5, read-out: Leishmania donovani IC50 Infected Macrophage): < 10 µM; IC50 (Leishmania donovani [6]; [13]): 9.7 µM; IC50 (J774A.1 macrophages [7]; [15]): 77 µM; IC50 (J774A.1 macrophages [7]; cytotoxicity, uninfected J774A.1 macrophages, single point determination, listed as membranolide (5), read-out: Leishmania donovani IC50 Uninfected Macrophage): 76.8 µM; IC50 (J774A.1 macrophages [7]; [14]): 77 µM |
| CCCCCCCCCCCCCCCCOP(=O)([O-])OCC[N+](C)(C)C [Miltefosine, miltefosine, reference compound] | 2.9 | > 120 |  |  |  |  |  |  |
| CC(=O)O[C@@H]1OC2OC(=O)[C@H](C)C34OOC([C@@]5(C)CCCC(C)(C)C5)(CC[C@@H]1C23)O4 (stereo partly shown) [Ozonide (14), tetrahydroaplysulphurin ozonide] | 9.9 | 17 | 61.7 | 18.6 | 17.7 | 40.6 | 99.9 | concentration with modest activity (60% inhibition) against P. falciparum infected liver cells (Plasmodium falciparum [4]): ≤ 15 µM |
| COc1cc(NC(C)CCCN)c2ncccc2c1 (stereo not shown) [Primaquine, primaquine, reference compound] |  |  | 97.8 | 0 |  |  |  |  |
| CC(=O)OC1OC2OC(=O)C(C)C3=C(C4(C)CCCC(C)(C)C4)CCC1C32 (stereo not shown) [Tetrahydroaplysulphurin-1 (4), tetrahydroaplysulphurin-1] |  |  | 66.7 | 3 | 35 | 31.1 | 20.8 | concentration with modest activity (60% inhibition) against P. falciparum infected liver cells (Plasmodium falciparum [4]): ≤ 13 µM; IC50 (Leishmania donovani [6]; [13]): 3.5 µM; IC50 (Leishmania donovani [6]; Table 3, unit not given (μM in Table 2), read-out: Pathogen Activity, Leishmania donovani): 3.5 µM; IC50 (J774A.1 macrophages [7]; [15]): > 130 µM; IC50 (J774A.1 macrophages [7]; [14]): > 130 µM |
| C[C@@H](CO)c1c([C@@]2(C)CCCC(C)(C)C2)ccc(CO)c1CO [Triol (15)] | 4.5 | > 160 | 81 | 2.2 | 2.6 | 12.3 | 9.3 | selectivity ratio [8]: > 38; selectivity index (SI, mammalian cytotoxicity/antiprotozoal activity) (Leishmania donovani [1]; J774A.1 cytotoxicity / L. donovani activity): ~40; IC50 (Leishmania donovani [1]; [13]): 4.2 µM; IC50 [2]: > 160 µM; Pathogen Activity, Plasmodium falciparum (Plasmodium falciparum [4]; Table 3, no unit printed there (≤16 μM)): ≤16; inhibition of the parasite cultures (Plasmodium falciparum) (Plasmodium falciparum [4]; at low micromolar concentrations): 100%; concentration with 100% inhibition against P. falciparum infected liver cells (Plasmodium falciparum [4]): ≤ 16 µM; cytotoxicity towards uninfected primary human hepatocytes (in words) [5]: no discernable cytotoxicity; Selectivity Index (SI), Plasmodium falciparum (Plasmodium falciparum [9]): >10 |
| CC(=O)O[C@@H]1O[C@H]2OC(=O)C3=C(C)[C@@H]([C@@]4(C)CCCC(C)(C)C4)CC[C@@H]1[C@H]32 [darwinolide (1), darwinolide] |  |  |  |  |  |  |  | potency against MRSA biofilm relative to planktonic MRSA [10]: four times more potent against the biofilm than it was against planktonic MRSA |
